Data on one molecule can be found in article PMC3544137, “Isolation identification and biochemical characterization of a novel halo-tolerant lipase from the metagenome of the marine sponge Haliclona simulans” (Microbial Cell Factories, 2012).

For this assay, the target named is T1, Lpc53E1 (uncultured bacterium, UniProt I4AY78).
T1 construct: primer-encoded N-terminus MKSRLNDI
The assay can be described thus: p-nitrophenol release at […] nm, Lineweaver-Burk. It counts as biochemical. The following applies: pH 7, 40 °C; unit printed as mM^-1 (presumably mM); unit of the source corrected.

T1 sequence (I4AY78 1-387 limits assumed): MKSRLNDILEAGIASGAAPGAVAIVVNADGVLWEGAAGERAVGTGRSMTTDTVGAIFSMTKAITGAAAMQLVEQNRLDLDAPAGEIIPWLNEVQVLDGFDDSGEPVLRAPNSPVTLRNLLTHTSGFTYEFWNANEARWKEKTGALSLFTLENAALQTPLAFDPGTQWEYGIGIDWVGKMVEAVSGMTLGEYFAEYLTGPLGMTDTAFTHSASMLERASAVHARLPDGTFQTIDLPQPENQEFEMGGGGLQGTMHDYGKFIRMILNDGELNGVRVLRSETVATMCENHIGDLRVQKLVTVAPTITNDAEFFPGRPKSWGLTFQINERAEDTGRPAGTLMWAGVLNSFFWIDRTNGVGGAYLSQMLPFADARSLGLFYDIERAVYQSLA

As for `CCCCCCCCCCCCCCCC(=O)Oc1ccc([N+](=O)[O-])cc1` [pNPP, p-nitrophenyl palmitate], the KM was 1.09 mM.
